This is an account of results in patent US9242981B2, “Fused pyrazole derivatives as novel ERK inhibitors” (Merck Sharp & Dohme Corp., priority 2010, dated 2016).

The target in one assay is ERK protein (Mus musculus, UniProt P63085). The assay is described as follows: TdF (Temperature Dependence Fluorescence, thermal shift) assay for ERK. Format: binding. As to conditions: Table 2; 3 μM ERK protein. The text has this:
The SAR (Structure Activity Relationship) for ERK ligands covered by this invention was interrogated using the TdF (Temperature Dependence Fluorescence) assay or best known as thermal shift assay. (M. W. Pantoliano, et al., “High-density miniaturized thermal shift assays as a general strategy for drug discovery,” J. Biomol. Screen 6 (2001) 429-440) The TdF assay was mainly conducted in the 96-well based CHROMO-4 real time fluorescence plate reader (BioRad). The Sypro Orange (Sigma-Aldrich), environmentally sensitive fluorescence dye, was used to monitor the protein folding-unfolding transition. Protein-ligand binding was gauged by the change (or shift) in the unfolding transition temperature (ΔTm) acquired at protein alone with respect to protein in the presence of ligand of interest.
Compound of interest was first prepared in DMSO stock (typical concentration: 10 mM). […] Final percentage of DMSO resided in the sample was 2%. The sample plate was heated from 30° C. to 90° C. with thermal ramping rate of 1° C./min. The fluorescence signals were acquired with excitation and emission wavelengths centered at 490 and 560 nm respectively. The instrument thermal stability was ±0.2° C. The melting temperatures (Tm) for ERK protein under aforementioned conditions occurred at […] and 64.8±0.2° C. respectively.
The derivation of TdF-based ligand binding affinity constant (Kd) followed closely those previously formulated by Brandts and Lin. (J. F. Brandts, L.-N. Lin, “Study of strong to ultratight protein interactions using differential scanning calorimetry,” Biochemistry 29 (1990) 6927-6940). In brief, the binding constant of the ligand at the Tm is expressed as below:
[formula] where T0 is the midpoint of unfolding for unliganded protein and Tm is the midpoint of unfolding in presence of ligand. [LTm] is free ligand at Tm. The ΔHu and ΔCpu are the enthalpy of unfolding and heat capacity change of unfolding for the protein respectively. Following algorithm derived by Winsor and coworker, the T0, ΔHu and ΔCpu can be determined separately from nonlinear regression fitting the protein alone melting curve:
[formula] where F(T) is the observed fluorescence intensity at any temperature T, Yn, and Yu are the predicted fluorescence intensities for fully folded and unfolded protein, respectively; mn and mu are slope correction for changes in Yn and Yu with respect to changes in temperature (analogously replace T0 with Tm in the above equation for liganded protein to yield Tm). (Mayhood, T. W., Windsor, W. T., “Ligand binding affinity determined by temperature-dependent circular dichroism: Cyclin-dependent kinase 2 inhibitors,” Analytical Biochemistry 345 (2005) 187-197).
[formula] where ΔHL (T) is the van't Hoff enthalpy of ligand binding at temperature T and ΔCpL is the heat capacity upon ligand binding. For simplicity, the ΔCpL and ΔHL (T) were set to zero and -7 kcal/mol respectively. […]

The target in the next assay is Mouse ERK2 protein (Mus musculus (Mouse), UniProt P63085). The assay is described as follows: Coupled MEK1/ERK2 IMAP assay or Active ERK2 IMAP assay. Format: biochemical.
Chain of Mouse ERK2 protein (P63085 whole entry): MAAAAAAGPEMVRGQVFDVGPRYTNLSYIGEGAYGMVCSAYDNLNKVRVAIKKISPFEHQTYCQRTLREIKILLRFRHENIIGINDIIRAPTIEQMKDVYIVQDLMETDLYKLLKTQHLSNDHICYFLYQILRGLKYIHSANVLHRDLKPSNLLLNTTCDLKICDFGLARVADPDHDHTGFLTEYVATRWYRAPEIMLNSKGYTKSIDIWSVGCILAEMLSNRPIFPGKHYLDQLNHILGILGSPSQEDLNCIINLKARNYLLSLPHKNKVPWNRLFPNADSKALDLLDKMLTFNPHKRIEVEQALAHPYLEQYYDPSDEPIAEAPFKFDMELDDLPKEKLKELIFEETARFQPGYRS
Setting [1] is: Table 1, class symbols, 30 μM ATP.

Chain of ERK protein (P63085 2-358 limits assumed): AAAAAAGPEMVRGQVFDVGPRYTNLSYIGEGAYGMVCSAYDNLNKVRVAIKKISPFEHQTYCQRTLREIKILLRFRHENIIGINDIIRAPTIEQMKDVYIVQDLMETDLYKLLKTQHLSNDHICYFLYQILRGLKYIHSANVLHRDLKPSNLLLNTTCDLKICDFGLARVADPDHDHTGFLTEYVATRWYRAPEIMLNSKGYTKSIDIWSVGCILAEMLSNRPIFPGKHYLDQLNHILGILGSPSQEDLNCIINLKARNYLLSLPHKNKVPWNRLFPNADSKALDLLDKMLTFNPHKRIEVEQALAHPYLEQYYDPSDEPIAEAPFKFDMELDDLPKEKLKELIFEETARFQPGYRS

In the case of `Cc1ccccc1[C@@H]1CN(C)C[C@H]1NC(=O)N1CCc2[nH]nc(-c3ccncc3)c2C1` [Compound 46, 1,4,6,7-tetrahydro-N-[1-methyl-4(R)-(2-methylphenyl)-3(S)-pyrrolidinyl]-3-(4-pyridinyl)-5H-pyrazolo[4,3-c]pyridine-5-carboxamide], at ERK protein, the dissociation constant Kd (commonly the concentration at which binding is half-saturated) was determined as 0.7 nM. Further, the 50% inhibitory concentration (IC50) (as a rule, the concentration that gives 50% inhibition) on Mouse ERK2 protein (Table 2, 30 μM ATP) was 0.89 nM.
In the same order, the values of `O=C(N[C@@H]1CCCN(Cc2ccccc2F)C1)N1CCc2[nH]nc(-c3ccncc3)c2C1` [Compound 48, N-[1-[(2-fluorophenyl)methyl]-3(R)-piperidinyl]-1,4,6,7-tetrahydro-3-(4-pyridinyl)-5H-pyrazolo[4,3-c]pyridine-5-carboxamide] are 0.37 nM and 0.65 nM.
`COc1cccc(F)c1CN1CCC[C@@H](NC(=O)N2CCc3[nH]nc(-c4ccncc4)c3C2)C1` [Compound 53, N-[1-[(2-fluoro-6-methoxyphenyl)methyl]-3(R)-piperidinyl]-1,4,6,7-tetrahydro-3-(4-pyridinyl)-5H-pyrazolo[4,3-c]pyridine-5-carboxamide]: the dissociation constant (Kd) at ERK protein stood at 0.15 nM. The 50% inhibitory concentration (IC50) on Mouse ERK2 protein (setting [1]) was < 20 nM; against Mouse ERK2 protein (Table 2, 30 μM ATP) it was 3.8 nM.
For `O=C(N[C@@H]1CCCN(Cc2c(F)cccc2F)C1)N1CCc2[nH]nc(-c3ccncc3)c2C1` [Compound 54, N-[1-[(2,6-difluorophenyl)methyl]-3(R)-piperidinyl]-1,4,6,7-tetrahydro-3-(4-pyridinyl)-5H-pyrazolo[4,3-c]pyridine-5-carboxamide], on ERK protein, the Kd amounted to 0.51 nM. Also, at Mouse ERK2 protein (Table 2, 30 μM ATP), half-maximal inhibition (IC50) was put at 1.97 nM.
Take `O=C(N[C@@H]1CCCN(Cc2csc3ccccc23)C1)N1CCc2[nH]nc(-c3ccncc3)c2C1` [Compound 57, N-[1-(benzo[b]thien-3-ylmethyl)-3(R)-piperidinyl]-1,4,6,7-tetrahydro-3-(4-pyridinyl)-5H-pyrazolo[4,3-c]pyridine-5-carboxamide]: the dissociation constant (Kd) at ERK protein was 0.3 nM. The midpoint of inhibition against Mouse ERK2 protein (Table 2, 30 μM ATP), the IC50, lay at 0.5 nM.
As for `Cc1ccsc1CN1CCC[C@@H](NC(=O)N2CCc3[nH]nc(-c4ccncc4)c3C2)C1` [Compound 58, 1,4,6,7-tetrahydro-N-[1-[(3-methyl-2-thienyl)methyl]-3(R)-piperidinyl]-3-(4-pyridinyl)-5H-pyrazolo[4,3-c]pyridine-5-carboxamide], the dissociation constant Kd at ERK protein was 0.25 nM. In addition, it took 1.98 nM to reach half-maximal inhibition on Mouse ERK2 protein (Table 2, 30 μM ATP) (IC50).
Consider `Cc1ccc(CN2CCC[C@@H](NC(=O)N3CCc4[nH]nc(-c5ccncc5)c4C3)C2)s1` [Compound 59, 1,4,6,7-tetrahydro-N-[1-[(5-methyl-2-thienyl)methyl]-3(R)-piperidinyl]-3-(4-pyridinyl)-5H-pyrazolo[4,3-c]pyridine-5-carboxamide], for which the equilibrium dissociation constant (Kd) at ERK protein came out at 1.51 nM. This compound yielded an IC50 against Mouse ERK2 protein (Table 2, 30 μM ATP) of 1.78 nM.
Take `Cn1cc(CN2CCC[C@@H](NC(=O)N3CCc4[nH]nc(-c5ccncc5)c4C3)C2)c2ccccc21` [Compound 60, 1,4,6,7-tetrahydro-N-[1-[(1-methyl-1H-indol-3-yl)methyl]-3(R)-piperidinyl]-3-(4-pyridinyl)-5H-pyrazolo[4,3-c]pyndine-5-carboxamide]: the Kd at ERK protein worked out at 1.12 nM. For the same compound, the IC50 against Mouse ERK2 protein (Table 2, 30 μM ATP) is 1.24 nM.
`Cn1c(CN2CCC[C@@H](NC(=O)N3CCc4[nH]nc(-c5ccncc5)c4C3)C2)cc2ccccc21` [Compound 61, 1,4,6,7-tetrahydro-N-[1-[(1-methyl-1H-indol-2-yl)methyl]-3(R)-piperidinyl]-3-(4-pyridinyl)-5H-pyrazolo[4,3-c]pyridine-5-carboxamide]: the dissociation constant Kd at ERK protein is 0.47 nM. The compound further yielded an IC50 against Mouse ERK2 protein (Table 2, 30 μM ATP) of 0.3 nM.
As for `CC(=O)n1cc(CN2CCC[C@@H](NC(=O)N3CCc4[nH]nc(-c5ccncc5)c4C3)C2)c2ccccc21` [Compound 62, N-[1-[(1-acetyl-1H-indol-3-yl)methyl]-3(R)-piperidinyl]-1,4,6,7-tetrahydro-3-(4-pyridinyl)-5H-pyrazolo[4,3-c]pyridine-5-carboxamide], the Kd on ERK protein was 2.1 nM. Moreover, the 50% inhibitory concentration (IC50) at Mouse ERK2 protein (Table 2, 30 μM ATP) was determined as 2.01 nM.
For the compound `O=C(N[C@@H]1CCCN(Cc2ccccc2Cl)C1)N1CCc2[nH]nc(-c3ccncc3)c2C1` [Compound 69, N-[1-[(2-chlorophenyl)-methyl]-3(R)-piperidinyl]-1,4,6,7-tetrahydro-3-(4-pyridinyl)-5H-pyrazolo[4,3-c]pyridine-5-carboxamide], on ERK protein, the Kd came to 0.31 nM. In addition, the IC50 at Mouse ERK2 protein (Table 2, 30 μM ATP) is 2.4 nM.
Turning to `Cc1cccc(C)c1CN1CCC[C@@H](NC(=O)N2CCc3[nH]nc(-c4ccncc4)c3C2)C1` [Compound 71, N-[1-[(2,6-dimethylphenyl)-methyl]-3(R)-piperidinyl]-1,4,6,7-tetrahydro-3-(4-pyridinyl)-5H-pyrazolo[4,3-c]pyridine-5-carboxamide], the Kd on ERK protein worked out at 0.15 nM. This compound also returned an IC50 at Mouse ERK2 protein (Table 2, 30 μM ATP) of 2.07 nM.
For the compound `Cc1noc(-c2ccccc2)c1CN1CCC[C@@H](NC(=O)N2CCc3[nH]nc(-c4ccncc4)c3C2)C1` [Compound 75, 1,4,6,7-tetrahydro-N-[1-[(3-methyl-5-phenyl-4-isoxazolyl)methyl]-3(R)-piperidinyl]-3-(4-pyridinyl)-5H-pyrazolo[4,3-c]pyridine-5-carboxamide], on ERK protein, the Kd came to 1.36 nM.
As for `Cc1onc(-c2ccccc2)c1CN1CCC[C@@H](NC(=O)N2CCc3[nH]nc(-c4ccncc4)c3C2)C1` [Compound 76, 1,4,6,7-tetrahydro-N-[1-[(5-methyl-3-phenyl-4-isoxazolyl)methyl]-3(R)-piperidinyl]-3-(4-pyridinyl)-5H-pyrazolo[4,3-c]pyridine-5-carboxamide], the Kd on ERK protein turned out to be 1.55 nM.
`Cc1cc(-c2n[nH]c3c2CN(C(=O)NC2CCCN(Cc4c(C)cccc4C)C2)CC3)ccn1` (stereo not shown) [Compound 84, N-[1-[(2,6-dimethylphenyl)-methyl]-3-piperidinyl]-1,4,6,7-tetrahydro-3-(2-methyl-4-pyridinyl)-5H-pyrazolo[4,3-c]pyridine-5-carboxamide]: the Kd at ERK protein was 0.13 nM. Moreover, half-maximal inhibition on Mouse ERK2 protein (Table 2, 30 μM ATP) (IC50) required 6.3 nM.
As to `Cc1cc(-c2n[nH]c3c2CN(C(=O)N[C@@H]2CCCN(Cc4cccc5ccccc45)C2)CC3)ccn1` [Compound 100, 1,4,6,7-tetrahydro-3-(2-methyl-4-pyridinyl)-N-[1-(1-naphthalenylmethyl)-3(R)-piperidinyl]-5H-pyrazolo[4,3-c]pyridine-5-carboxamide], at ERK protein, the Kd worked out at 0.4 nM. Besides, the concentration for half-maximal inhibition (IC50) against Mouse ERK2 protein (Table 2, 30 μM ATP) worked out at 3.7 nM.
Consider `O=C(N[C@@H]1CCCN(Cc2csc3ccccc23)C1)N1CCc2[nH]nc(-c3ccc4nccn4c3)c2C1` [Compound 109, N-[1-(benzo[b]thien-3-ylmethyl)-3(R)-piperidinyl]-1,4,6,7-tetrahydro-3-(imidazo[1,2-a]pyridin-6-yl)-5H-pyrazolo[4,3-c]pyridine-5-carboxamide], for which the Kd at ERK protein came out at 0.14 nM. The half-maximal inhibitory concentration (IC50) against Mouse ERK2 protein (Table 2, 30 μM ATP) came out at 3 nM.
For `Cc1cccc(C)c1CN1CCC[C@@H](NC(=O)N2CCc3[nH]nc(-c4ccc5nccn5c4)c3C2)C1` [Compound 110], the Kd on ERK protein was 0.03 nM. Also, on Mouse ERK2 protein (Table 2, 30 μM ATP), the IC50 turned out to be 5.3 nM.
Take `O=C(N[C@@H]1CCCN(Cc2cccc3ccccc23)C1)N1CCc2[nH]nc(-c3ccc4nccn4c3)c2C1` [Compound 112, 1,4,6,7-tetrahydro-3-imidazo[1,2-a]pyridin-6-yl-N-[1-(1-naphthalenylmethyl)-3(R)-piperidinyl]-5H-pyrazolo[4,3-c]pyridine-5-carboxamide]: at ERK protein, the Kd turned out to be 0.12 nM. The compound further had a half-inhibitory concentration (IC50) against Mouse ERK2 protein (Table 2, 30 μM ATP) of 3.1 nM.
Consider `Cc1nc2ccc(-c3n[nH]c4c3CN(C(=O)N[C@@H]3CCCN(Cc5csc6ccccc56)C3)CC4)cc2o1` [Compound 189, N-[1-(benzo[b]thien-3-ylmethyl)-3(R)-piperidinyl]-1,4,6,7-tetrahydro-3-(2-methyl-6-benzoxazolyl)-5H-pyrazolo[4,3-c]pyridine-5-carboxamide], for which the IC50 against Mouse ERK2 protein (setting [1]) was < 20 nM.
On Mouse ERK2 protein (setting [1]), `Cc1nc2cc(-c3n[nH]c4c3CN(C(=O)N[C@@H]3CCCN(Cc5ccccc5)C3)CC4)ccc2s1` [Compound 190, 1,4,6,7-tetrahydro-3-(2-methyl-5-benzothiazolyl)-N-[1-(phenylmethyl)-3(R)-piperidinyl]-5H-pyrazolo[4,3-c]pyridine-5-carboxamide] gave an IC50 of 101 to 1000 nM.
As to `Cc1nc2ccc(-c3n[nH]c4c3CN(C(=O)N[C@@H]3CCCN(Cc5ccccc5F)C3)CC4)cc2o1` [Compound 191, N-[1-[(2-fluorophenyl)-methyl]-3(R)-piperidinyl]-1,4,6,7-tetrahydro-3-(2-methyl-6-benzoxazolyl)-5H-pyrazolo[4,3-c]pyridine-5-carboxamide], the IC50 at Mouse ERK2 protein (setting [1]) is < 20 nM.
